pEC50, pKi: −log10 of the molar value. *1 amine or outer side, *2 acyl side, *3 side chain or, on linkers, in order; H or OH if unused. Where a SMILES comes first, the peptide text is derived from it. Side-chain parts run from the residue outwards. [ ]: non-standard residue; d: D form. The star is where a group is joined. C20 diacid = O=C(O)CCCCCCCCCCCCCCCCCCC(=O)*; γGlu = O=C(O)[C@H](CCC(=O)[*:2])N[*:1]; αMeL = CC(C)C[C@](C)(N)C(=O)O; αMeK = C[C@](N)(CCCCN)C(=O)O; AEEA = NCCOCCOCC(=O)O; Aib = CC(C)(N)C(=O)O
What was measured:
hGcgR = molecular target: T1, hGcgR (Homo sapiens, UniProt P47871); assay: cAMP assay in HEK293 cells expressing hGcgR, 0.1% casein; format: cell-based; conditions: in the presence of 0.1% casein; read-out: cAMP EC50, GcGR
T1 construct: expressed in transfected cells; host or cells: HEK293

hGLP-1R = hGLP-1R (Homo sapiens, UniProt P43220); assay: cAMP assay in HEK293 cells expressing hGLP-1R, 0.1% casein; format: cell-based; conditions: in the presence of 0.1% casein; read-out: cAMP EC50, GLP-1R
hGIPR = molecular target: T2, hGIPR (Homo sapiens, UniProt P48546); assay: cAMP assay in HEK293 cells expressing hGIPR, 0.1% casein; format: cell-based; conditions: in the presence of 0.1% casein; read-out: cAMP EC50, GIPR
T2 construct: expressed in transfected cells; host or cells: HEK293
T2 sequence (P48546 22-466): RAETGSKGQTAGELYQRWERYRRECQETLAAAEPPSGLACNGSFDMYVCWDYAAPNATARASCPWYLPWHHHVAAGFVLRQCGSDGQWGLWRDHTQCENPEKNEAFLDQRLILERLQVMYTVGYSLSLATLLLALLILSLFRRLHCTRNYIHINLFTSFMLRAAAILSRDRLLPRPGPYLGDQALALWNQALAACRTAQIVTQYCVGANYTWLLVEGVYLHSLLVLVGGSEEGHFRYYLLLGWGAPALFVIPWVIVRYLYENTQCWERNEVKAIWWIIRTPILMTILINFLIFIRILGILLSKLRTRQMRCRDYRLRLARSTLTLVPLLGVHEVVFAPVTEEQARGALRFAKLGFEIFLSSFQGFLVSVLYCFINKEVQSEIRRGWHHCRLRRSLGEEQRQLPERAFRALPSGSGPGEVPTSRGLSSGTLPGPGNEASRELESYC

[1] = molecular target: T3, human GIP receptor (GIPR) (Homo sapiens, UniProt P48546); assay: Radioligand competition binding (SPA), human GIPR membranes; conditions: HEK293 membranes, SPA, bacitracin present; mean; read-out: Ki, GIPR
T3 construct: expressed in transfected cells; host or cells: HEK293 (membranes)
T3 sequence (P48546 22-466): T2 sequence (P48546 22-466)
From the text: (§1) Radioligand competition binding assays are run to determine the equilibrium dissociation constant for exemplary compounds and comparator molecules.
(§2) Competition curves are plotted as the percent specific inhibition (y-axis) versus log concentration of compound (x-axis) and analyzed using a four parameter nonlinear regression fit with variable slope (ABase or Genedata).

[2] = molecular target: T4, human glucagon receptor (GcgR) (Homo sapiens, UniProt P47871); assay: Radioligand competition binding (SPA), human GcgR membranes; conditions: HEK293 membranes, SPA, bacitracin present; mean; read-out: Ki, GcgR
T4 construct: expressed in transfected cells; host or cells: HEK293 (membranes)
From the text: as §1, §2

in vivo = conditions: male, Sprague-Dawley, rat, sc, 100 nmol/kg
Experimental: (§3) The pharmacokinetics of the exemplary analogs are evaluated following a single subcutaneous administration of 100 nM/kg to male Sprague Dawley rats. Blood samples are collected over 120 hours, and resulting individual plasma concentrations are used to calculate pharmacokinetic parameters. Peptide plasma (K3 EDTA) concentrations are determined using a qualified LC/MS method that measured the intact mass of the analog. Each peptide and an analog as an internal standard are extracted from 100% specie specified plasma using methanol with 0.1% formic acid. A Thermo Q-Exactive, High Resolution Instrument, and a Thermo Easy Spray PepMap are combined for LC/MS detection.

GLP-1 receptor (GLP-1R) = molecular target: T5, GLP-1 receptor (GLP-1R) (Homo sapiens, UniProt P43220); assay: Radioligand competition binding (SPA), human GLP-1R membranes; conditions: HEK293 membranes, SPA, bacitracin present; mean; read-out: Ki, GLP-1R
T5 construct: expressed in transfected cells; host or cells: HEK293 (membranes)
From the text: as §1, §2

[3] = rat, in vivo, sc, 100 nmol/kg
Experimental: as §3

Chain of hGLP-1R (P43220 24-463): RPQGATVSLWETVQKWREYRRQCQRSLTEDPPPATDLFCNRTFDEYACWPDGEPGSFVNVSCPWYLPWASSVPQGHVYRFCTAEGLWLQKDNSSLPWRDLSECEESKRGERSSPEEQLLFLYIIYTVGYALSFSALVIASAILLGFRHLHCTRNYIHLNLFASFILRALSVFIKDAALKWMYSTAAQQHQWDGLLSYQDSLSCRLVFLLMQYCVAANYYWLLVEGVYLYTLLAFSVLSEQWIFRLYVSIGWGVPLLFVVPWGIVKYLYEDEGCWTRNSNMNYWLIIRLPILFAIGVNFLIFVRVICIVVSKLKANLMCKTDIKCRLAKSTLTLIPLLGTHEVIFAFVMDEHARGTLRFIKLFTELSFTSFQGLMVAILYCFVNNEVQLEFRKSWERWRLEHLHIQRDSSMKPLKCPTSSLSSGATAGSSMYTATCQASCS
T5 sequence (P43220 24-463): as above
T4 sequence (P47871 26-477): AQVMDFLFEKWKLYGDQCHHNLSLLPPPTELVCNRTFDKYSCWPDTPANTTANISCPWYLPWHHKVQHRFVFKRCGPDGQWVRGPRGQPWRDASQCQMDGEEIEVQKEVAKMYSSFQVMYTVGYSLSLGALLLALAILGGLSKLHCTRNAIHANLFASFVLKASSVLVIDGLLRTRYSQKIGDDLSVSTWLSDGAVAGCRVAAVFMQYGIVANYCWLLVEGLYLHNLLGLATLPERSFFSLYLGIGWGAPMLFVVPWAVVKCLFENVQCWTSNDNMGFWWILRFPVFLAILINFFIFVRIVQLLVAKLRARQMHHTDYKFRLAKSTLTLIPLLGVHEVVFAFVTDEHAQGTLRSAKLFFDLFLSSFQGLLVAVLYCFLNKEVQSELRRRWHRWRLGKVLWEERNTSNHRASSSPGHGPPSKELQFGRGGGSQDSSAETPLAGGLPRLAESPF
T1 sequence (P47871 26-477): as above

Structure (SMILES)	pEC50 (hGcgR)	pEC50 (hGLP-1R)	pEC50 (hGIPR)	pKi [1]	pKi [2]	CL/F (in vivo) [mL/min/kg]	Tmax (in vivo) [h]	half-life (in vivo) [h]	pKi (GLP-1 receptor (GLP-1R))	AUCINF_D_obs [3] [hr*kg*nmol/L/nmol]
CC[C@H](C)[C@H](NC(=O)[C@H](Cc1ccccc1)NC(=O)[C@H](C)NC(=O)C(C)(C)NC(=O)[C@H](CCC(N)=O)NC(=O)[C@H](C)NC(=O)[C@H](CCCCNC(=O)COCCOCCNC(=O)CC[C@H](NC(=O)CCCCCCCCCCCCCCCCCCC(=O)O)C(=O)O)NC(=O)[C@H](CCCCN)NC(=O)[C@H](CC(=O)O)NC(=O)[C@H](CC(C)C)NC(=O)[C@H](CC(C)C)NC(=O)[C@@H](NC(=O)[C@H](CO)NC(=O)[C@H](Cc1ccc(O)cc1)NC(=O)[C@H](CC(=O)O)NC(=O)[C@H](CO)NC(=O)[C@@H](NC(=O)[C@H](Cc1ccccc1)NC(=O)[C@@H](NC(=O)CNC(=O)[C@H](CCC(N)=O)NC(=O)C(C)(C)NC(=O)[C@@H](N)Cc1ccc(O)cc1)[C@@H](C)O)[C@@H](C)O)[C@@H](C)CC)C(=O)N[C@@H](CCC(=O)O)C(=O)N[C@@H](Cc1ccc(O)cc1)C(=O)N[C@@H](CC(C)C)C(=O)N[C@@H](CC(C)C)C(=O)N[C@@H](C)C(=O)NC(C)(C)C(=O)NCC(=O)N1CCC[C@H]1C(=O)N[C@@H](CO)C(=O)N[C@@H](CO)C(=O)NCC(=O)N[C@@H](C)C(=O)N1CCC[C@H]1C(=O)N1CCC[C@H]1C(=O)N1CCC[C@H]1C(=O)N[C@@H](CO)C(N)=O [Example 4] (H-Y[Aib]QGTFTSDYSILLDKK([AEEA-γGlu-C20 diacid])AQ[Aib]AFIEYLLA[Aib]GPSSGAPPPS-NH2)	10.17	9.74	10.19	10.43	8.59	0.12	16	19.9	8.45	140
CC[C@H](C)[C@H](NC(=O)[C@H](Cc1ccccc1)NC(=O)[C@H](C)NC(=O)C(C)(C)NC(=O)[C@H](CCC(N)=O)NC(=O)[C@H](C)NC(=O)[C@H](CCCCNC(=O)COCCOCCNC(=O)CC[C@H](NC(=O)CCCCCCCCCCCCCCCCCCC(=O)O)C(=O)O)NC(=O)[C@H](CCCCN)NC(=O)[C@H](CC(=O)O)NC(=O)[C@H](CC(C)C)NC(=O)[C@](C)(CC(C)C)NC(=O)[C@@H](NC(=O)[C@H](CO)NC(=O)[C@H](Cc1ccc(O)cc1)NC(=O)[C@H](CC(=O)O)NC(=O)[C@H](CO)NC(=O)[C@@H](NC(=O)[C@H](Cc1ccccc1)NC(=O)[C@@H](NC(=O)CNC(=O)[C@H](CCC(N)=O)NC(=O)C(C)(C)NC(=O)[C@@H](N)Cc1ccc(O)cc1)[C@@H](C)O)[C@@H](C)O)[C@@H](C)CC)C(=O)N[C@@H](CCC(=O)O)C(=O)N[C@@H](Cc1ccc(O)cc1)C(=O)N[C@@H](CC(C)C)C(=O)N[C@@H](CC(C)C)C(=O)N[C@@H](CCC(=O)O)C(=O)NC(C)(C)C(=O)NCC(=O)N1CCC[C@H]1C(=O)N[C@@H](CO)C(=O)N[C@@H](CO)C(=O)NCC(=O)N[C@@H](C)C(=O)N1CCC[C@H]1C(=O)N1CCC[C@H]1C(=O)N1CCC[C@H]1C(=O)N[C@@H](CO)C(N)=O [Example 13] (H-Y[Aib]QGTFTSDYSI[αMeL]LDKK([AEEA-γGlu-C20 diacid])AQ[Aib]AFIEYLLE[Aib]GPSSGAPPPS-NH2)	10.09	9.90	10.41	10.34	8.72	0.0817	20	21.7	8.19	205.7
CC[C@H](C)[C@H](NC(=O)[C@H](Cc1ccccc1)NC(=O)[C@H](C)NC(=O)C(C)(C)NC(=O)[C@H](CCC(N)=O)NC(=O)[C@H](C)NC(=O)[C@H](CCCCNC(=O)COCCOCCNC(=O)CC[C@H](NC(=O)CCCCCCCCCCCCCCCCCCC(=O)O)C(=O)O)NC(=O)[C@H](CCCCN)NC(=O)[C@H](CC(=O)O)NC(=O)[C@H](CC(C)C)NC(=O)[C@](C)(CC(C)C)NC(=O)[C@@H](NC(=O)[C@H](CO)NC(=O)[C@H](Cc1ccc(O)cc1)NC(=O)[C@H](CC(=O)O)NC(=O)[C@H](CO)NC(=O)[C@@H](NC(=O)[C@H](Cc1ccccc1)NC(=O)[C@@H](NC(=O)CNC(=O)[C@H](CCC(N)=O)NC(=O)C(C)(C)NC(=O)[C@@H](N)Cc1ccc(O)cc1)[C@@H](C)O)[C@@H](C)O)[C@@H](C)CC)C(=O)N[C@@H](CCC(=O)O)C(=O)N[C@@H](Cc1ccc(O)cc1)C(=O)N[C@@H](CC(C)C)C(=O)N[C@@H](CC(C)C)C(=O)N[C@@H](CCC(=O)O)C(=O)NC(C)(C)C(=O)NCC(=O)N1CCC[C@H]1C(=O)N[C@@H](CO)C(=O)N[C@@H](CO)C(=O)NC(C)(C)C(=O)N[C@@H](C)C(=O)N1CCC[C@H]1C(=O)N1CCC[C@H]1C(=O)N1CCC[C@H]1C(=O)N[C@@H](CO)C(N)=O [Example 14] (H-Y[Aib]QGTFTSDYSI[αMeL]LDKK([AEEA-γGlu-C20 diacid])AQ[Aib]AFIEYLLE[Aib]GPSS[Aib]APPPS-NH2; N-terminus assumed)	10.06	9.84	10.45	10.46	8.58	–	–	–	8.20	–
CC[C@H](C)[C@H](NC(=O)[C@H](Cc1ccccc1)NC(=O)[C@H](C)NC(=O)[C@](C)(CCCCN)NC(=O)[C@H](CCC(N)=O)NC(=O)[C@H](C)NC(=O)[C@H](CCCCNC(=O)COCCOCCNC(=O)COCCOCCNC(=O)CC[C@H](NC(=O)CCCCCCCCCCCCCCCCCCC(=O)O)C(=O)O)NC(=O)[C@H](CCCCN)NC(=O)[C@H](CC(=O)O)NC(=O)[C@H](CC(C)C)NC(=O)[C@](C)(CC(C)C)NC(=O)[C@@H](NC(=O)[C@H](CO)NC(=O)[C@H](Cc1ccc(O)cc1)NC(=O)[C@H](CC(=O)O)NC(=O)[C@H](CO)NC(=O)[C@@H](NC(=O)[C@H](Cc1ccccc1)NC(=O)[C@@H](NC(=O)CNC(=O)[C@H](CCC(N)=O)NC(=O)C(C)(C)NC(=O)[C@@H](N)Cc1ccc(O)cc1)[C@@H](C)O)[C@@H](C)O)[C@@H](C)CC)C(=O)N[C@@H](CCC(=O)O)C(=O)N[C@@H](Cc1ccc(O)cc1)C(=O)N[C@@H](CC(C)C)C(=O)N[C@@H](CC(C)C)C(=O)N[C@@H](C)C(=O)NC(C)(C)C(=O)NCC(=O)N1CCC[C@H]1C(=O)N[C@@H](CO)C(=O)N[C@@H](CO)C(=O)NCC(=O)N[C@@H](C)C(=O)N1CCC[C@H]1C(=O)N1CCC[C@H]1C(=O)N1CCC[C@H]1C(=O)N[C@@H](CO)C(N)=O [Example 1] (H-Y[Aib]QGTFTSDYSI[αMeL]LDKK([AEEA-AEEA-γGlu-C20 diacid])AQ[αMeK]AFIEYLLA[Aib]GPSSGAPPPS-NH2; N-terminus assumed)	9.94	9.82	10.28	10.33	8.08	0.173	8	11.7	8.58	95.7

Reference: patent US11542313B2, “Incretin analogs and uses thereof” (Eli Lilly and Company, priority 2017, dated 2023)
